Columns and labels:
Assay type in all cases: cell-based
[1] = target: T1, mouse Clec10a (Mus musculus, UniProt P49300); assay: Mouse Clec10a-CD3ζ NFAT-GFP reporter cell assay; settings: pretreatment of the reporter cells, HDM-coated plates
T1 construct: an extracellular and transmembrane portions of Clec10a fused to a cytoplasmic portion of CD3; expressed in transfected cells; host or cells: 2B4-NFAT-GFP reporter cells, pMXs-puro retroviral vector
T1 sequence (P49300 57-304 limits assumed): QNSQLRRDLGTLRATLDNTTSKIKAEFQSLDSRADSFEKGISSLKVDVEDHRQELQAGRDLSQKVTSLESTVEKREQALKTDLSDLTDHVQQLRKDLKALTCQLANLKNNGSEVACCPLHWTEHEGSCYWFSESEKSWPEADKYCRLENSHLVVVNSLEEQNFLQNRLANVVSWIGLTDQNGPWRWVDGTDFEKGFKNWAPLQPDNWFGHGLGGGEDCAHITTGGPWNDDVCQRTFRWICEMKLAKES
Method: (§1) The intracellular region of human CD3ζ was obtained from a vector provided by LL Lanier (University of California, San Francisco). The extracellular region of mouse or human Clec10a or the extracellular region of human Asgr1 was subcloned into a pMXs-puro retroviral vector. 2B4-NFAT-GFP reporter cells were provided from H. Arase (University of Osaka). 2B4-NFAT-GFP reporter cells stably expressing mouse or human Clec10a were made as described previously. The reporter cells were incubated for 18 hours in the presence or absence of anti-Clec10a mAb, Lewis X (GlycoTech), Lewes Y (GlycoTech), galactose (Sigma-Aldrich), glucose (Sigma-Aldrich) or mannose (Sigma-Aldrich). The reporter cells were also cultured on a galactosidase (R & D Systems, 5704 GH or 5549 GH) or glucosidase (R & D Systems, 8329-GH), or Clec10 ligand-coated plate, or an HDM extract-coated plate treated with size-fractionated Clec10a ligand or untreated. Activation of NFAT-GFP was monitored by flow cytometry.
To test whether Clec10a recognized glycosylated proteins contained in HDM, NFAT-GFP reporter cells (Clec10a reporter cells) were made which expressed chimeric fusion proteins inch ling an extracellular and transmembrane portions of Clec10a fused to a cytoplasmic portion of CD3.

[2] = target: T2, human Asgr1 (Homo sapiens, UniProt P07306); assay: Human Asgr1-CD3ζ NFAT-GFP reporter cell assay
T2 construct: the extracellular region of human Asgr1 was subcloned into a pMXs-puro retroviral vector; expressed in transfected cells
T2 sequence (P07306 62-291 limits assumed): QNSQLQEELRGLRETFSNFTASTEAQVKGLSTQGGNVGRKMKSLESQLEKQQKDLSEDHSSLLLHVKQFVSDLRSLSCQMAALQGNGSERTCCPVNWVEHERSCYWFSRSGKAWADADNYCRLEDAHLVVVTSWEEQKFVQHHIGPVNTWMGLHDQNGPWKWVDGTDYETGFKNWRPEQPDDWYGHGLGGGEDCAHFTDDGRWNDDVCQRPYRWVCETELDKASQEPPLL
Method: as §1
(§2) The hemITAM sequence (YxxL) was not found in human Clec10a and could only be found in human Asgr1 (see panel c in FIG. 4). […] Upon confirmation of protein expression, human Asgr1 expressed in MP in the human skin, similarly to Clec10a expression in the mouse skin (see panel e in FIG. 4). […]

[3] = target: T3, human Clec10a (Homo sapiens, UniProt Q8IUN9); assay: Human Clec10a-CD3ζ NFAT-GFP reporter cell assay; settings: addition of sugar, HDM-coated plates
T3 construct: The extracellular region of mouse or human Clec10a or the extracellular region of human Asgr1 was subcloned; expressed in transfected cells; host or cells: 2B4-NFAT-GFP reporter cells, pMXs-puro retroviral vector
T3 sequence (Q8IUN9 61-316 limits assumed): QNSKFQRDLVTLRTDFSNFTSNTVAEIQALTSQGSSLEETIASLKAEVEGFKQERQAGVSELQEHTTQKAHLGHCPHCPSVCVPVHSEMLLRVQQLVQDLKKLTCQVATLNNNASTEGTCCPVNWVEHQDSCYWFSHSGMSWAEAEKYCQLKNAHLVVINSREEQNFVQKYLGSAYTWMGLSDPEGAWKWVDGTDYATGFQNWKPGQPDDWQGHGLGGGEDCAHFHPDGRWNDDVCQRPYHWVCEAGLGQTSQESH
Method: as §1, §2

Inhibition of HDM-induced GFP expression in mouse Clec10a reporter cells [1]: inhibited GFP expression | Inhibition of HDM-induced GFP expression in human Clec10a reporter cells [3]: only in the Asgr1 reporter cells
Compound: O=C[C@H](O)[C@@H](O)[C@@H](O)[C@H](O)CO [galactose]
Offset of Clec10a ligand-induced activation of human Asgr1 reporter cells ([2]; addition of galactose to the system): offset, in a concentration dependent manner | Inhibition of HDM-induced GFP expression in human Asgr1 reporter cells ([2]; addition of sugar, HDM-coated plates): inhibited the expression of GFP induced by HDM

From US12617837B2, “Composition for use in treatment of allergic diseases” (UNIVERSITY OF TSUKUBA, priority 2019, dated 2026)
